Experimental data: US10329289B2, “6,7-dihydro-5H-pyrrolo[3,4-B]pyridin-5-one allosteric modulators of the M4 muscarinic acetylcholine receptor” (Merck Sharp & Dohme Corp., priority 2015, dated 2019)
pEC50: −log10 of the molar value.

molecular target: T1, human M4 muscarinic acetylcholine receptor (Homo sapiens, UniProt P08173); assay: human FLIPR-based M4 PAM assay (Ca2+ mobilization, CHO-K1 cells with human M4 receptor and Gαqi5); assay type: cell-based; details: acetylcholine at 20% of maximum response, read-out: M4 PAM IP
T1 construct: expressed in transfected cells; host or cells: CHO-K1
T1 sequence (P08173 1-479): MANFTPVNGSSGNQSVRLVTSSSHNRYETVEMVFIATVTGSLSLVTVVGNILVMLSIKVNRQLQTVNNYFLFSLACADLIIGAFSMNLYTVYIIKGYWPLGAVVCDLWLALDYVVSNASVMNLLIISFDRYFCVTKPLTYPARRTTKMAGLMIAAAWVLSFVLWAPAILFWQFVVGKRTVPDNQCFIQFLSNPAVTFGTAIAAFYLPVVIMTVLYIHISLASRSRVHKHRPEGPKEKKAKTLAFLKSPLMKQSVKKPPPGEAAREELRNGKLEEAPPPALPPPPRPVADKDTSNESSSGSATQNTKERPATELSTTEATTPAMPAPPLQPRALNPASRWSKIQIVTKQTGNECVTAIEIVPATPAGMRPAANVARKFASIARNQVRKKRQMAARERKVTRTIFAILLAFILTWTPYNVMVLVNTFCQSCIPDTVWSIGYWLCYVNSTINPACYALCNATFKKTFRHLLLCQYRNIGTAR
In short: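 Calcium-mobilization (FLIPR) readout in dye-loaded CHO-K1 cells co-expressing human M4 receptor and Gαqi5. Potentiation measured against acetylcholine at a concentration giving 20% of maximal response, with an optional 70% addition; the reported value is the curve inflection point from a 4-parameter logistic fit.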

| pEC50 | SMILES |
| --- | --- |
| 6.49 | COc1ccc(OC2CCN(c3nc4c(cc3C)C(=O)N(CCN(C)C)C4)CC2)cn1 [Example 235, 6-(2-(dimethylamino)ethyl)-2-(4-((6-methoxypyridin-3-yl)oxy)piperidin-1-yl)-3-methyl-6,7-dihydro-5H-pyrrolo[3,4-b]pyridin-5-one] |
| 6.50 | Cc1cc2c(nc1N1CCC(Oc3cccc(C#N)c3)CC1)CN(CCN(C)C)C2=O [Example 236, 3-((1-(6-(2-(dimethylamino)ethyl)-3-methyl-5-oxo-6,7-dihydro-5H-pyrrolo[3,4-b]pyridin-2-yl)piperidin-4-yl)oxy)benzonitrile] |
| 6.84 | Cc1cc2c(nc1N1CCC(Oc3cnc4c(c3)COC4)CC1)CN(CCO)C2=O [Example 236A, 2-(4-((5,7-dihydrofuro[3,4-b]pyridin-3-yl)oxy)piperidin-1-yl)-6-(2-hydroxyethyl)-3-methyl-6,7-dihydro-5H-pyrrolo[3,4-b]pyridin-5-one] |
| 7.17 | Cc1cc2c(nc1N1CC[C@@H](Oc3ccccc3)[C@@H](F)C1)CN(CCO)C2=O [Example 237, 2-((3S,4R)-3-fluoro-4-phenoxypiperidin-1-yl)-6-(2-hydroxyethyl)-3-methyl-6,7-dihydro-5H-pyrrolo[3,4-b]pyridin-5-one] |
| 7.31 | COc1ccc(OC2CCN(c3nc4c(cc3C)C(=O)N(CCO)C4)CC2)cn1 [Example 238, 6-(2-hydroxyethyl)-2-(4-((6-methoxypyridin-3-yl)oxy)piperidin-1-yl)-3-methyl-6,7-dihydro-5H-pyrrolo[3,4-b]pyridin-5-one] |
| 7.44 | Cc1cc2c(nc1N1CCC(Oc3cccc(C#N)c3)CC1)CN(CCO)C2=O [Example 239, 3-((1-(6-(2-hydroxyethyl)-3-methyl-5-oxo-6,7-dihydro-5H-pyrrolo[3,4-b]pyridin-2-yl)piperidin-4-yl)oxy)benzonitrile] |
| 7.07 | Cc1cc2c(nc1N1CCC(Oc3ccc4c(cnn4C)c3)CC1)CN(CCO)C2=O [Example 239A, 6-(2-hydroxyethyl)-3-methyl-2-(4-((1-methyl-1H-indazol-5-yl)oxy)piperidin-1-yl)-6,7-dihydro-5H-pyrrolo[3,4-b]pyridin-5-one] |
| 7.40 | Cc1cc2c(nc1N1CCC(Oc3ccccc3)CC1)CN(C)C2=O [Example 240, 3,6-dimethyl-2-(4-phenoxypiperidin-1-yl)-6,7-dihydro-5H-pyrrolo[3,4-b]pyridin-5-one] |
| 6.90 | CCc1cc2c(nc1N1CC[C@@H](Oc3ccc4c(cnn4C)c3)[C@@H](F)C1)CN(CCO)C2=O [Example 240A, 3-ethyl-2-((3S,4R)-3-fluoro-4-((1-methyl-1H-indazol-5-yl)oxy)piperidin-1-yl)-6-(2-hydroxyethyl)-6,7-dihydro-5H-pyrrolo[3,4-b]pyridin-5-one] |
| 7.66 | Cc1cc2c(nc1N1CC[C@@H](Oc3ccccc3)[C@@H](F)C1)CN(C)C2=O [Example 241, 2-((3S,4R)-3-fluoro-4-phenoxypiperidin-1-yl)-3,6-dimethyl-6,7-dihydro-5H-pyrrolo[3,4-b]pyridin-5-one] |
| 7.03 | Cc1cc2c(nc1N1CC[C@@H](Oc3ccc4c(cnn4C)c3)[C@H](F)C1)CN(CCO)C2=O [Example 241A, 2-((3R,4R)-3-fluoro-4-((1-methyl-1H-indazol-5-yl)oxy)piperidin-1-yl)-6-(2-hydroxyethyl)-3-methyl-6,7-dihydro-5H-pyrrolo[3,4-b]pyridin-5-one] |
| 7.13 | CCN1Cc2nc(N3CCC(Oc4cccc(C#N)c4)CC3)c(C)cc2C1=O [Example 242, 3-((1-(6-ethyl-3-methyl-5-oxo-6,7-dihydro-5H-pyrrolo[3,4-b]pyridin-2-yl)piperidin-4-yl)oxy)benzonitrile] |
| 7.14 | CCN1Cc2nc(N3CCC(Oc4ccccc4)CC3)c(C)cc2C1=O [Example 243, 6-ethyl-3-methyl-2-(4-phenoxypiperidin-1-yl)-6,7-dihydro-5H-pyrrolo[3,4-b]pyridin-5-one] |
| 7.49 | CCN1Cc2nc(N3CC[C@@H](Oc4ccccc4)[C@@H](F)C3)c(C)cc2C1=O [Example 244, 6-ethyl-2-((3S,4R)-3-fluoro-4-phenoxypiperidin-1-yl)-3-methyl-6,7-dihydro-5H-pyrrolo[3,4-b]pyridin-5-one] |
| 7.55 | CCN1Cc2nc(N3CCC(Oc4ccc5c(c4)COC5)CC3)c(C)cc2C1=O [Example 244A, 2-(4-((1,3-dihydro-2-benzofuran-5-yl)oxy)piperidin-1-yl)-6-ethyl-3-methyl-6,7-dihydro-5H-pyrrolo[3,4-b]pyridin-5-one] |
| 7.12 | COc1ccc(OC2CCN(c3nc4c(cc3C)C(=O)N(C(C)C)C4)CC2)cn1 [Example 245, 6-isopropyl-2-(4-((6-methoxypyridin-3-yl)oxy)piperidin-1-yl)-3-methyl-6,7-dihydro-5H-pyrrolo[3,4-b]pyridin-5-one] |
| 6.90 | Cc1cc2c(nc1N1CCC(Oc3cccc(C#N)c3)CC1)CN(C(C)C)C2=O [Example 246, 3-((1-(6-isopropyl-3-methyl-5-oxo-6,7-dihydro-5H-pyrrolo[3,4-b]pyridin-2-yl)piperidin-4-yl)oxy)benzonitrile] |
| 6.86 | Cc1cc2c(nc1N1CCC(Oc3ccccc3)CC1)CN(C(C)C)C2=O [Example 247, 6-isopropyl-3-methyl-2-(4-phenoxypiperidin-1-yl)-6,7-dihydro-5H-pyrrolo[3,4-b]pyridin-5-one] |
| 7.06 | Cc1cc2c(nc1N1CC[C@@H](Oc3ccccc3)[C@@H](F)C1)CN(C(C)C)C2=O [Example 248, 2-((3S,4R)-3-fluoro-4-phenoxypiperidin-1-yl)-6-isopropyl-3-methyl-6,7-dihydro-5H-pyrrolo[3,4-b]pyridin-5-one] |
| 7.49 | Cc1cc2c(nc1N1CCC(Oc3cccc(C#N)c3)CC1)CN(C1CC1)C2=O [Example 249, 3-((1-(6-cyclopropyl-3-methyl-5-oxo-6,7-dihydro-5H-pyrrolo[3,4-b]pyridin-2-yl)piperidin-4-yl)oxy)benzonitrile] |
| 6.83 | Cc1cc2c(nc1N1CCC(Oc3ccccc3)CC1)CN(C1CC1)C2=O [Example 250, 6-cyclopropyl-3-methyl-2-(4-phenoxypiperidin-1-yl)-6,7-dihydro-5H-pyrrolo[3,4-b]pyridin-5-one] |
| 7.15 | COc1ccc(OC2CCN(c3nc4c(cc3C)C(=O)N(CC3COC3)C4)CC2)cn1 [Example 250A, 2-(4-((6-methoxypyridin-3-yl)oxy)piperidin-1-yl)-3-methyl-6-(oxetan-3-ylmethyl)-6,7-dihydro-5H-pyrrolo[3,4-b]pyridin-5-one] |
| 6.70 | COCCCN1Cc2nc(N3CCC(Oc4ccc(OC)nc4)CC3)c(C)cc2C1=O [Example 251, 6-(3-methoxypropyl)-2-(4-((6-methoxypyridin-3-yl)oxy)piperidin-1-yl)-3-methyl-6,7-dihydro-5H-pyrrolo[3,4-b]pyridin-5-one] |
| 7.03 | COCCN1Cc2nc(N3CCC(Oc4ccc(OC)nc4)CC3)c(C)cc2C1=O [Example 252, 6-(2-methoxyethyl)-2-(4-((6-methoxypyridin-3-yl)oxy)piperidin-1-yl)-3-methyl-6,7-dihydro-5H-pyrrolo[3,4-b]pyridin-5-one] |
| 7.31 | Cc1cc2c(nc1N1CCC(Oc3ccc(F)cc3)CC1)CN(C)C2=O [Example 253, 2-(4-(4-fluorophenoxy)piperidin-1-yl)-3,6-dimethyl-6,7-dihydro-5H-pyrrolo[3,4-b]pyridin-5-one] |
